According to paper PMC8950706, “Influence of Substitutions in the Binding Motif of Proline-Rich Antimicrobial Peptide ARV-1502 on 70S Ribosome Binding and Antimicrobial Activity” (International Journal of Molecular Sciences, 2022):
Square brackets hold non-standard residues; d marks the D form. Peptide text beside a SMILES is read from it. Ac6c = NC1(C(=O)O)CCCCC1

Tests used:
E. coli BW25113 = assay: MIC, liquid broth micro dilution, wild type; format: cell-based, Escherichia coli
Description: (§1) MIC values were determined using a liquid broth micro dilution assay in sterile 96-well plates (polystyrene F-bottom, Greiner Bio-One GmbH) and a total volume of 100 μL per well. Aqueous peptide solutions (10 g/L) were serially twofold diluted in 25% Mueller-Hinton broth 2 (25% MBH2) or 33% tryptic soy broth (33% TSB) starting at a peptide concentration of 128 mg/L (50 μL/well). Overnight cultures of bacteria grown in 25% MHB2 (or 33% TSB) were diluted 30-fold in 25% MHB2 (or 33% TSB). After an incubation period of 4 h (37 °C, 200 rpm), cells were diluted to 1.5 × 10^7 cfu/mL, based on a McFarland test, and 50 μL were added to each well (final concentration of 7.5 × 10^6 […]). The plates were incubated (37 °C, 20 h) and the optical density was recorded at 595 nm using a microplate reader ([…]^TM, Beckmann Coulter). The MIC was defined as the lowest peptide concentration preventing visible bacterial growth.

[1] = system: E. coli BW25113 ∆sbmA ∆mdtM; format: cell-based, Escherichia coli; details: for Minimal Inhibitory Concentration, 25% MHB2, ∆sbmA ∆mdtM: 25% MHB2, 37 °C; for Minimal Inhibitory Concentration, 25% MHB2, ∆sbmA ∆mdtM / Minimal Inhibitory Concentration, 33% TSB, ∆sbmA ∆mdtM: 20 h, at least duplicates on two days, * once on two days, ** duplicate on one day; for Minimal Inhibitory Concentration, 33% TSB, ∆sbmA ∆mdtM: 37 °C; for Effect of the additional mdtM knockout on antibacterial activity: ∆sbmA ∆mdtM compared with ∆sbmA
Description: as §1

E. coli BW25113 ∆sbmA = format: cell-based, Escherichia coli; details: for Minimal Inhibitory Concentration, 25% MHB2, ∆sbmA: 25% MHB2, 37 °C; for Minimal Inhibitory Concentration, 25% MHB2, ∆sbmA / Minimal Inhibitory Concentration, 33% TSB, ∆sbmA: 20 h, at least duplicates on two days, * once on two days, ** duplicate on one day; for Minimal Inhibitory Concentration, 33% TSB, ∆sbmA: 37 °C
Description: as §1

E. coli 70S ribosome [2] = assay: Competitive FP binding screening assay with Cf-ARV-1502 (relative FP); parameters: species or system E. coli BW25113; details: for Inhibition of Cf-ARV-1502 binding to the 70S ribosome (in words): Figure 3: peptide concentration 1.2 µmol/L
Description: E. coli 70S ribosomes were prepared using a previously described protocol that was slightly modified. Briefly, E. coli BW25113 was cultivated in Luria-Bertani (LB) medium and cells were harvested after reaching an optical density of ~4 at 600 nm by centrifugation (5000× g, 15 min, 4 °C, Rotor JLA 8.100, Avanti J-20 XP, Beckmann Coulter, Krefeld, Germany). The cell pellets were frozen and stored at −80 °C. Cells were resuspended in ribosome buffer (2 mL/g cells; 20 mmol/L HEPES-KOH, 6 mmol/L MgCl2, 30 mmol/L NH4Cl, 4 mmol/L 2-mercaptoethanol, pH 7.6). Lysozyme (0.25 g/L cell suspension) was added, and the mixture was incubated on ice for 30 min. Cells were disrupted using the bead mill homogenizer FastPrep-24™ 5G (40 s, 4 m/s, 6 cycles, MP Biomedicals Germany GmbH, Eschwege, Germany) and zirconia/silica beads (0.1 mm diameter). The lysate was centrifuged (1500× g, 5 min, 4 °C, Rotor S4180, Allegra 21R, Beckmann Coulter) and the supernatant was incubated with DNase (5 U/mL) on ice for 60 min. The cell debris was removed by two centrifugation steps (16,000× g, 30 min, 4 °C followed by 32,000× g, 60 min, 4 °C, Rotor JA 30.50 Ti, Avanti J-30I, Beckmann Coulter). The ribosome was pelleted by ultracentrifugation (165,000× g, 17 h, 4 °C, Rotor 70 Ti, Optima LE-80K, Beckmann Coulter), resuspended in ribosome buffer (0.1 mL/g pellet), and stored at −80 °C. The ribosome concentration was determined by recording the absorbance of RNA at 260 nm (NanoPhotometer NP80, Implen GmbH, München, Germany) assuming that 1 AU corresponds to a ribosome concentration of 28 nmol/L. The molecular weight of the E. coli 70S ribosome was assumed to be 2.3 MDa.
E. coli 70S ribosomes and Cf-ARV-1502 were incubated with four different concentrations of unlabeled peptides chosen based on the IC50 curves of reference peptide ARV-1502. Each peptide was diluted in ribosome buffer to obtain a concentration of 4.8 µmol/L and transferred to a 384-well-plate. Peptides were then twofold serially diluted in four steps from 4.8 to 0.6 µmol/L (20 µL). The ribosome extract was diluted in ribosome buffer to reach a concentration of 2 µmol/L and 10 µL were added to each well to obtain a final ribosome concentration of 0.5 µmol/L. Plates were centrifuged (2 min, 500× g, Rotor S2096, Allegra^TM 21R, Beckmann Coulter) and incubated at 28 °C for 90 min. Cf-labeled ARV-1502 was added (10 µL; final concentration of 20 nmol/L) and the plates were again centrifuged and incubated (28 °C, 90 min). After incubation, fluorescence polarization was recorded on a […]^TM microplate reader (λex = 485 nm, λem = 535 nm).
On each plate 12 minimum (30 µL ribosome buffer and 10 µL Cf-ARV-1502) and 12 maximum (20 µL ribosome buffer, 10 µL ribosome solution and 10 µL Cf-ARV-1502) control samples were added. Fluorescence polarization of screening samples was normalized to the fluorescence polarization of these control samples. All screening samples were measured in triplicates and the whole experiment was repeated once on another day.

E. coli 70S ribosome [3] = assay: Cell-free GFP expression assay (in vitro translation); format: biochemical
Description: Possible effects of ARV-1502 and its substituted analogs on the in vitro translation of the green fluorescent protein (GFP) were probed using the NEB PureExpress Delta RF123 Kit (New England Biolabs, Ipswich, MA, USA). The sfGFP DNA template was amplified from pY71sfGFP plasmid by PCR introducing an UAA stop codon. Release factor 1 (RF1) was 50fold diluted in Pure System Buffer (PSB) containing magnesium acetate (1 mol/L), monopotassium phosphate (0.5 mol/L, pH 7.3), potassium glutamate (1 mol/L), NH4Cl (1 mol/L), calcium chloride (0.5 mol/L), spermidine (1 mol/L), putrescine (0.1 mol/L), and DTT (0.1 mol/L). Each reaction used 35 ng of sfGFP template. Peptides were added at a final concentration of 5 µmol/L and 50 µmol/L. The reaction was started by adding Kit solutions A (2 µL) and B (1.5 µL), diluted RF1 (0.5 µL), sfGFP template (0.25 µL or water as negative control), PSB (0.25 µL), and peptide (0.5 µL or water), mixed, transferred into a black 384-well plate (flat bottom, Greiner Bio-One GmbH), and incubated (37 °C, 2 h). The fluorescence was recorded every 10 min (λexc = 485 nm, λem = 535 nm) in a microplate reader (Gemini EM, Molecular Devices LLC, San Jose, CA, USA).

[4] = 33% TSB, 37 °C, 20 h, at least duplicates on two days, * once on two days, ** duplicate on one day

Structure (SMILES) | Minimal Inhibitory Concentration, 25% MHB2, wt (E. coli BW25113; 25% MHB2, 37 °C, 20 h, at least duplicates on two days, * once on two days, ** duplicate on one day) [µg/mL] | Minimal Inhibitory Concentration, 33% TSB, wt (E. coli BW25113; [4]) [µg/mL] | Minimal Inhibitory Concentration, 25% MHB2, ∆sbmA ∆mdtM [1] [µg/mL] | Minimal Inhibitory Concentration, 33% TSB, ∆sbmA ∆mdtM [1] [µg/mL] | Effect of the additional mdtM knockout on antibacterial activity [1] | Minimal Inhibitory Concentration, 25% MHB2, ∆sbmA (E. coli BW25113 ∆sbmA) [µg/mL] | Minimal Inhibitory Concentration, 33% TSB, ∆sbmA (E. coli BW25113 ∆sbmA) [µg/mL] | Inhibition of Cf-ARV-1502 binding to the 70S ribosome (in words) (E. coli 70S ribosome [2]) | MIC (µg/mL), Table 3 (E. coli BW25113; BW25113, 4 h) [µg/mL] | Minimal Inhibitory Concentration, 25% MHB2, wt (E. coli BW25113; BW25113, 20 h) [µg/mL] | Minimal Inhibitory Concentration, 33% TSB, wt (E. coli BW25113; BW25113, 20 h) [µg/mL] | Effect of deletion of SbmA on antibacterial activity (E. coli BW25113 ∆sbmA; ∆sbmA compared with wild-type strain) | Ribosome Binding (%) (E. coli 70S ribosome [2]; competitive ribosome binding against Cf-ARV-1502 (relative FP; values match 1.2 µmol/L peptide), low value = strong competition) | In Vitro Translation (%) (E. coli 70S ribosome [3]; GFP expression remaining relative to control, concentration not given (higher concentration 50 µmol/L)) | Reduction of GFP expression, 50 µmol/L peptide (E. coli 70S ribosome [3]; cell-free expression, peptide-to-ribosome ratio of 25, GFP fluorescence, 37 °C) | MIC / activity against E. coli (E. coli BW25113; BW25113, 4 h) [µg/mL]
CC(C)C[C@H](NC(=O)[C@H](Cc1ccc(O)cc1)NC(=O)[C@@H]1CCCN1C(=O)[C@H](CCCNC(=N)N)NC(=O)[C@@H]1CCCN1C(=O)[C@H](Cc1ccccc1)NC(=O)[C@H](Cc1ccccc1)NC(=O)[C@@H]1CCCN1C(=O)[C@H](CCCNC(=N)N)NC(=O)C1(N)CCCCC1)C(=O)N[C@@H](CO)C(=O)N[C@@H](CCCNC(=N)N)C(=O)N1CCC[C@H]1C(=O)N[C@@H](CCCNC(=N)N)C(=O)N1CCC[C@H]1C(=O)N1CCC[C@H]1C(=O)N[C@@H](CCCNC(=N)N)C(=O)N1CCC[C@H]1C(=O)N[C@H](C(=O)N[C@@H](CCCNC(=N)N)C(N)=O)C(C)C [Peptide 99] (H-[Ac6c]RPFFPRPYLSRPRPPRPVR-NH2) | 16 to 32 | 64 | 32 | 128 | no effect | 32 | 128 | did not inhibit the binding of Cf-ARV-1502 |  |  |  |  |  |  |  | 
CC(C)C[C@H](NC(=O)[C@H](Cc1ccc(O)cc1)NC(=O)[C@@H]1CCCN1C(=O)[C@H](CCCNC(=N)N)NC(=O)[C@@H]1CCCN1C(=O)[C@H](Cc1ccccc1)NC(=O)[C@H](Cc1ccccc1)NC(=O)[C@@H]1CCCN1C(=O)[C@H](CCCNC(=N)N)NC(=O)C1(N)CCCCC1)C(=O)N1CCC[C@H]1C(=O)N[C@@H](CC(C)C)C(=O)N1CCC[C@H]1C(=O)N[C@@H](CCCNC(=N)N)C(=O)N1CCC[C@H]1C(=O)N1CCC[C@H]1C(=O)N[C@@H](CCCNC(=N)N)C(=O)N1CCC[C@H]1C(=O)N[C@H](C(=O)N[C@@H](CCCNC(=N)N)C(N)=O)C(C)C [Peptide 102] (H-[Ac6c]RPFFPRPYLPLPRPPRPVR-NH2; N-terminus and C-terminus assumed) |  |  |  |  | no effect |  |  |  | 32 to 64 | 32 to 64 | 64 | no effect | 76.5 ± 5.6 | 78.9 ± 3.5 | ~ 25% | 
CC(C)[C@H](NC(=O)[C@@H]1CCCN1C(=O)[C@H](CCCNC(=N)N)NC(=O)[C@@H]1CCCN1C(=O)[C@@H]1CCCN1C(=O)[C@H](CCCNC(=N)N)NC(=O)[C@@H]1CCCN1C(=O)[C@H](CCCNC(=N)N)NC(=O)[C@@H]1CCCN1C(=O)[C@H](Cc1ccccc1)NC(=O)[C@H](CCCCN)NC(=O)[C@@H]1CCCN1C(=O)[C@H](CCCNC(=N)N)NC(=O)[C@@H]1CCCN1C(=O)[C@H](CCCCN)NC(=O)[C@H](CC(=O)O)NC(=O)[C@@H]1CCCN1C(=O)[C@H](CCCNC(=N)N)NC(=O)C1(N)CCCCC1)C(=O)N[C@@H](CCCNC(=N)N)C(N)=O [Peptide 123] (H-[Ac6c]RPDKPRPKFPRPRPPRPVR-NH2) |  | 128 | 128 | >128 | weakened the activity | 64 | >128 | did not inhibit the binding of Cf-ARV-1502 |  | 32 |  |  |  |  |  | 16 to 32
